Entries after “also recorded” stand apart in the source; their conditions may differ.
System: senescence-associated β-galactosidase in salivary gland cell clusters (SGm)
Test: Cellular senescence assay (SPiDER-βGal) in salivary gland tissue chip, 5 days post-radiation (15 Gy); also second screen of library hits at 100 μM; for Senescence (radioprotection): key: +: radioprotection; ~: partial radioprotection; —: no radioprotection
Type: cell-based, mouse
Settings: for protection against radiation-induced senescence / radioprotection in dose response, senescence assay / Estimated EC50, Senescence: 15 Gy; for protection against radiation-induced senescence: 5 days post-radiation; for double hit in the drug screen: glutathione and senescence assays, 100 μM, statistically similar to 0 Gy; for Estimated EC50, Senescence: nonlinear fit in Prism of dose response curves
Description: The chip platform consists of an array of near-spherical microbubble (MB) cavities formed in poly(dimethylsiloxane) (PDMS). Each chip, containing ~50 MBs, affixed within wells of a 96-well plate (FIG. 1C). Primary salivary gland cell clusters (FIG. 1A), suspended in a poly(ethylene glycol) (PEG) hydrogel precursor and MMP-degradable peptide crosslinker solution together with the photoinitiator LAP, were applied to the chip allowing the clusters to deposit into the MBs (FIG. 1D). In situ polymerization of the hydrogel was achieved using long-wave, low intensity UV light. Over time, the cell clusters aggregate and proliferate to form SGm (FIG. 1C).
For senescence, a protocol similar to the glutathione assay was followed to determine the optimal time point post-radiation for detecting a change in senescence between 0 Gy and 15 Gy, as measured by senescence-associated β-galactosidase activity.
The glutathione and senescence assays were used to screen a library of FDA-approved drugs (Selleck Chemicals) at 100 μM. Drugs were first screened using the glutathione assay according to the timeline depicted in FIG. 2A. […] Hits with the glutathione assay were then tested with the senescence assay and considered a “double hit” if senescence levels were statistically similar to levels at 0 Gy (FIG. 4, black circles).
Mice were euthanized and the submandibular glands (SMG) were removed and chopped with a razor blade for 5 min. […] Cells were centrifuged, then resuspended in HBSS with 15 mM HEPES and passed through 100 μm and 20 μm mesh filters to isolate clusters between 20-100 μm. […] The isolated clusters were combined with hydrogel precursor solution and seeded in MB array-based chips as described below.
The cell/gel precursor solution (25 μL for 48 well; 20 μL for 96 well) was pipetted onto the MB chips and incubated for 30 min, pipetting every 10 min to redisperse cells that had settled onto the surface of the chip.
A cellular senescence assay for the chips was developed by adapting the Cellular Senescence Detection Kit—SPiDER-βGal (Dojindo Molecular Technologies, Inc. SG04). Bafilomycin A1 and SPiDER-βGal stock solutions were prepared in DMSO per manufacturer directions. The assay was performed by first incubating the chips with bafilomycin A1 (1:1000 dilution in media) for 1 hr at 37 °C. […] Chips were washed twice with media and imaged using a fluorescence microscope with a Texas Red filter (Excitation: 580 nm; Emission: 604 nm).
For radioprotection experiments, SGm were cultured in MB-hydrogel chips for 4 days, then drugs were added to the chips 30 min prior to irradiation and washed out with media 30 min post-radiation treatment. […] The glutathione and senescence assays were performed at 4- and 5-days post-radiation. For assay validation experiments, at least 3 chips (N=3) were used for each drug, corresponding to >100 MBs (n>100); these values are listed in the figure description for each experiment. Mean, standard deviation, and statistics were calculated based on the number of MBs (n).
For screening of the Selleck Chemicals compound library, the same treatment scheme was used, with drugs administered at 100 μM. One MB chip (N=1) was used per compound, with ~40-50 MBs per chip […]; statistics were calculated using the number of MBs (n) and compared to 0 Gy controls.
For both the glutathione and cellular senescence assays, images were quantified in ImageJ.

| Estimated EC50, Senescence | Compound | Senescence (radioprotection) (1 mM) | protection against radiation-induced senescence (1 mM) | Senescence (radioprotection) (4 mM) | protection against radiation-induced senescence (4 mM) | radioprotection in dose response, senescence assay | double hit in the drug screen |
| --- | --- | --- | --- | --- | --- | --- | --- |
|  | NCCCNCCS [WR-1065] | + | complete radioprotection | + | complete radioprotection; also recorded: restored to levels equivalent to 0 Gy |  |  |
| 16400 nM | Doripenem hydrate |  |  |  |  | variable protection | double hits |
| 50 nM | CCCCC1C(=O)N(c2ccccc2)N(c2ccccc2)C1=O [Phenylbutazone] |  |  |  |  | only partial protection |  |
| 500 nM | CCn1cc(C(=O)O)c(=O)c2cc(F)c(N3CCNCC3)nc21 [Enoxacin (Penetrex)] |  |  |  |  |  | double hits |

Source: patent US20260345555A1, “Compositions and Methods for Protecting Salivary Glands from Off-Target Radiation Damage” (University of Rochester, priority 2022, published 2026)
